The values below come from patent US20220241202A1, “METHOD AND VEHICLE FOR DELIVERING AGENTS ACROSS THE BLOOD-BRAIN BARRIER” (priority 2019, published 2022).

Test [1] relates to CAD cells. Briefly: Nanoscale flow cytometry of EVs secreted from CAD cells expressing GFP-72Q huntingtin^exon1. The class given is cell-based. The protocol: (§1) Cell lines were transfected with the molecular chaperone CSPα and a GFP-tagged protein. CAD cells (catecholaminergic derived CNS cells) were the cell line utilized. Other cell lines, including patient-derived cell lines, may also be utilized. cDNAs encoding for myc-tagged CSPα or vector alone and GFP-72Q huntingtin^exon1 were transiently transfected with Lipofectamine™ 3000 (Invitrogen) in Opti-MEM™ medium. Media was changed to serum-free media 6 hours post-transfection. Media was collected 48 hours after transfection, spun at 300×g for 5 min to remove cell debris and evaluated without further processing by nanocyte tracking analysis, nanoscale flow cytometry analysis and dot blot analysis. For western blot analysis, EVs were isolated from the unfractionated media by exoquick precipitation solution (SBI) and solubilized in sample buffer. Following media collection, cell viability was determined using an XTT assay (New England Biolabs). When resveratrol was used, it was added to the serum-free media 6 hours post-transfection at the time of the media change.
For NTA and nanoscale flow cytometry analysis, all samples were diluted 25 fold using 0.2× phosphate buffered saline that had been filtered twice through 0.2 μm filter. For NTA analysis, all samples were analyzed using the Nanosight LM10 (405 nm laser, 60 mW, software version 3.00064). Samples were analyzed in triplicate for 60 seconds per replicate with a count range of 20-100 particles per frame. A variety of NIST (Thermo Scientific 3000 Series) standards were analyzed, each the day prior to sample analysis. The system was cleaned between each sample and checked for any sample carryover using the PBS diluent. NTA measures EVs within a size range from about 30 nm to about 1,000 nm.
Samples were similarly prepared for nanoscale flow cytometry as for NTA. All samples were analyzed using the Apogee A50 flow cytometry platform. Light scatter was provided using the 405 nm laser (75 mW); GFP signal was generated using the 488 nm laser (50 mW, 535/35) and far red signal was generated using the 630 nm laser (75 mW, 680/35). All samples were analyzed for 60 seconds. Optimization was performed to insure single EVs were being analyzed and single events were triggered by light scatter only. The system was cleaned each day prior to sample analysis and a variety of silica and polystyrene standards (Apogee 1493 standards) processed for instrument set up and QC. The silica standards were used to assess the relative size range of EVs. Nanoscale flow cytometry measures EVs within a size range from about 100 nm to about 1,300 nm. […]

Test [2] concerns CAD cells. Briefly: Western blot / dot blot analysis of GFP-72Q huntingtin^exon1 in EVs collected from CAD cells. Format: cell-based. As for the experimental part: as §1
(§2) Proteins were separated by SDS-PAGE and electrotransferred from polyacrylamide gels to nitrocellulose membrane (0.2 μm pore size). Membranes were blocked in tris-buffered saline (TBS) containing 0.1% Tween 20, 1% BSA and then incubated with primary antibody overnight at 4° C. The membranes were washed and incubated with horseradish peroxidase-coupled secondary antibody for about 2 hours at room temperature. Bound antibodies on the membranes were detected by incubation with Pierce chemiluminescent reagent and exposure to Cdigit, LiCor (Mandel). The chemiluminescent signals were quantified using image studio digits software (Mandel). For dot blots, 10 μl of unfractionated media was spotted on a nitrocellulose membrane, dried and the membrane was processed as described above.

The subject of another test is naive CAD cells. Briefly: EV delivery of GFP-72Q huntingtin^exon1 cargo to naive recipient CAD cells (live cell fluorescence imaging). The class given is cell-based. The protocol: Images of live cells were taken with the EVOS FL Auto Imaging System. Images of donor cells were taken at the time of media collection. Images of recipient cells were taken between 1-48 hours. The intensity of the GFP-72Q huntingtin^exon1 varied among cells and a single slider was used until the on-screen brightness of the lowest intensity aggregate was satisfactory and used this setting to capture images in high-quality mode. Where indicated, after the 300×g for 5 minutes conditioned media spin to remove cell debris, 60 μl of Exo-Red (SBI) was incubated with 1 ml media containing EVs for 10 minutes at 37° C. to label the RNA EV cargo. 150 μl of exo-quick was added, the labelled EVs were placed on ice for 30 min and then centrifuged for 3 minutes at 20,000×g. The labelled EV pellet was resuspended in 1 ml of DMEM-F12 media and applied to target cells.

Test [3] relates to CAD cells. The experiment in a line: Screen of J proteins for EV-mediated export of misfolded huntingtin (western blot and nanoscale flow cytometry). Format: cell-based. The note with it: cells expressing GFP-tagged 72Q huntingtin^exon1 and the J protein. As for the experimental part:
as §1, §2
Samples were similarly prepared for nanoscale flow cytometry as for NTA. All samples were analyzed using the Apogee A50 flow cytometry platform. Light scatter was provided using the 405 nm laser (75 mW); GFP signal was generated using the 488 nm laser (50 mW, 535/35) and far red signal was generated using the 630 nm laser (75 mW, 680/35). All samples were analyzed for 60 seconds. Optimization was performed to insure single EVs were being analyzed and single events were triggered by light scatter only. The system was cleaned each day prior to sample analysis and a variety of silica and polystyrene standards (Apogee 1493 standards) processed for instrument set up and QC. The silica standards were used to assess the relative size range of EVs. Nanoscale flow cytometry measures EVs within a size range from about 100 nm to about 1,300 nm.
To test whether other J proteins may also export misfolded proteins, several J proteins with reported links to neurodegeneration were screened for EV-mediated export activity. […] Alternative splicing of the DnaJB2 gene produces two isoforms, a DnaJB2short and a 42 kDa DnaJB2long isoform that undergoes C terminal geranylgeranylation. DnaJB2long was studied further. […] Extracellular milieu includes free floating co-chaperones in addition to EVs, and chaperones that adhere to EVs were expected to co-isolate with EVs. […] In fact, DnaJB11 as well as DnaJA1 were robustly secreted by CAD neurons under all conditions evaluated (FIG. 5C).

The conditions of test [4]: previously shown; cited from earlier work.
[5] abbreviates: presence of CSPα and 50 μM resveratrol.

On to `Oc1ccc(C=Cc2cc(O)cc(O)c2)cc1` [resveratrol, Resveratrol], for which the “GFP-72Q huntingtin^exon1-containing EVs” value in the test with CAD cells [1] (50 μM resveratrol 6 hours following transfection) was “decreasing”. For the same molecule, in the test with CAD cells [1] (50 μM resveratrol 6 hours following transfection, all conditions (vector, CSPα, CSPαL115R, CSPαΔ116)), the “total EVs exported by CAD cells” value was “increased total EVs exported by CAD cells in all conditions”. In addition, the “mean size of vesicles” value in the test with CAD cells [1] (50 μM resveratrol, all conditions) is on record as “increased the mean size of vesicles”. Moreover, in the test on CAD cells [1] (50 μM resveratrol, control, vector and CSPα-expressing cells), the “total EV secretion” value is recorded as “increases total EV secretion”. The “CSPα-EV export of EVs containing GFP-72Q huntingtin^exon1” value in the test with CAD cells [1] (50 μM resveratrol, p<0.0001) is “significantly reduced”. Also, in the test with CAD cells [1] (setting [5]), the “EVs containing GFP cargo within the 180-240 nm subpopulation” value came to 0.53%, the “EVs containing GFP cargo within the <180 nm subpopulation” value is 0.03% and the “EVs containing GFP cargo within the >240 nm subpopulation” value was 0.78%. In the test with CAD cells [1] (resveratrol concentration response), the “secretion of the 180-240 nm GFP-labelled EV pool” value was “significantly reduced secretion of the 180-240 nm GFP-labelled EV pool in a concentration-dependent manner”. Besides, in the test with CAD cells [2] (50 μM resveratrol), the “secretion of GFP-72Q huntingtin^exon1 and CSPα (western blot of EVs)” value is “reduced secretion of GFP-72Q huntingtin^exon1 but not CSPα”; the “secretion of GFP-72Q huntingtin^exon1 mediated by CSPα and ANCL mutants” value is “reduced secretion of GFP-72Q huntingtin^exon1 mediated by CSPα, CSPαL115R and CSPαΔ116”. The “GFP cargo in recipient cells” value with naive CAD cells (media produced from neurons treated with 50 μM resveratrol) was “GFP cargo was still detected in recipient cells”.
On to DnaJA1: related J protein, for which the “EV-mediated export of misfolded huntingtin” value in the test on CAD cells [3] is “did not export misfolded huntingtin”.
The same measure, in the same setting: for DnaJB1: related J protein the value was “did not export misfolded huntingtin”; for DnaJC13: related J protein, “did not export misfolded huntingtin”; for DnaJC19: related J protein, “did not export misfolded huntingtin”.
Turning to α-synuclein, the “mutant huntingtin export with increasing protein expression” value with CAD cells [2] (western blot of EVs) was “did not result in mutant huntingtin export”. For the same molecule, the “GFP-72Q huntingtin^exon1 cargo / aggregates in recipient CAD cells after media application” value with naive CAD cells (conditioned media applied to naive cells, imaged 1-48 hours) is recorded as “low levels of GFP signal at 24 hours”.

B1: CSPαΔ116: CSPα with the human L116Δ mutation that causes ANCL (protein, UniProt Q9H3Z4 1-198, looked up, variant L116*)
DnaJ homolog subfamily C …: MADQRQRSLSTSGESLYHVLGLDKNATSDDIKKSYRKLALKYHPDKNPDNPEAADKFKEINNAHAILTDATKRNIYDKYGSLGLYVAEQFGEENVNTYFVLSSWWAKALFVFCGLTCCYCCCCLCCCFNCCCGKCKPKAPEGEETEFYVSPEDLEAQLQSDEREATDTPIVIQPASATETTQLTADSHPSYHTDGFN
Consider B1, for which the “export of GFP-72Q huntingtin^exon1” value in test [4] was “promote export”.

B2: DnaJB2: DnaJ Heat Shock Protein Family (Hsp40) Member B2 (protein, UniProt P25686 2-321, looked up)
DnaJ homolog subfamily B …: ASYYEILDVPRSASADDIKKAYRRKALQWHPDKNPDNKEFAEKKFKEVAEAYEVLSDKHKREIYDRYGREGLTGTGTGPSRAEAGSGGPGFTFTFRSPEEVFREFFGSGDPFAELFDDLGPFSELQNRGSRHSGPFFTFSSSFPGHSDFSSSSFSFSPGAGAFRSVSTSTTFVQGRRITTRRIMENGQERVEVEEDGQLKSVTINGVPDDLALGLELSRREQQPSVTSRSGGTQVQQTPASCPLDSDLSEDEDLQLAMAYSLSEMEAAGKKPAGGREAQHRRQGRPKAQHQDPGLGGTQEGARGEATKRSPSPEEKASRC
On to B2, for which the “EV-mediated export of misfolded huntingtin” value in the test on CAD cells [3] is recorded as “exports misfolded huntingtin in EVs”.

B3: DnaJB11: related J protein (protein, UniProt Q9UBS4 23-358, looked up)
DnaJ homolog subfamily B …: GRDFYKILGVPRSASIKDIKKAYRKLALQLHPDRNPDDPQAQEKFQDLGAAYEVLSDSEKRKQYDTYGEEGLKDGHQSSHGDIFSHFFGDFGFMFGGTPRQQDRNIPRGSDIIVDLEVTLEEVYAGNFVEVVRNKPVARQAPGKRKCNCRQEMRTTQLGPGRFQMTQEVVCDECPNVKLVNEERTLEVEIEPGVRDGMEYPFIGEGEPHVDGEPGDLRFRIKVVKHPIFERRGDDLYTNVTISLVESLVGFEMDITHLDGHKVHISRDKITRPGAKLWKKGEGLPNFDNNNIKGSLIITFDVDFPKEQLTEEAREGIKQLLKQGSVQKVYNGLQGY
As for B3, the “EV-mediated export of misfolded huntingtin” value in the test on CAD cells [3] was “did not export misfolded huntingtin”.

B4: DnaJC14: related J protein (protein, UniProt Q6Y2X3 1-702, looked up)
DnaJ homolog subfamily C …: MAQKHPGERGLYGAHHSGGASLRTLGPSVDPEIPSFSGLRDSAGTAPNGTRCLTEHSGPKHTQHPNPAHWLDPSHGPPGGPGPPRDAEDPDQSETSSEEESGVDQELSKENETGNQKDGNSFLSIPSACNCQGTPGIPEGPYSEGGNGSSSNFCHHCTSPALGEDELEEEYDDEESLKFPSDFSRVSSGKKPPSRRQRHRFPTKEDTREGGRRDPRSPGRHRLGRKRSQADKRKGLGLWGAEELCQLGQAGFWWLIELLVLVGEYVETCGHLIYACRQLKSSDLDLFRVWMGVWTGRLGGWAQVMFQFLSQGFYCGVGLFTRFLKLLGALLLLALALFLGFLQLGWRFLVGLGDRLGWRDKATWLFSWLDSPALQRCLTLLRDSRPWQRLVRIVQWGWLELPWVKQNINRQGNAPVASGRYCQPEEEVARLLTMAGVPEDELNPFHVLGVEATASDVELKKAYRQLAVMVHPDKNHHPRAEEAFKVLRAAWDIVSNAEKRKEYEMKRMAENELSRSVNEFLSKLQDDLKEAMNTMMCSRCQGKHRRFEMDREPKSARYCAECNRLHPAEEGDFWAESSMLGLKITYFALMDGKVYDITEWAGCQRVGISPDTHRVPYHISFGSRIPGTRGRQRATPDAPPADLQDFLSRIFQVPPGQMPNGNFFAAPQPAPGAAAASKPNSTVPKGEAKPKRRKKVRRPFQR
Consider B4, for which the “EV-mediated export of misfolded huntingtin” value with CAD cells [3] was “did not export misfolded huntingtin”.

B5: CSPαL115R: CSPα with the human L115R mutation that causes ANCL (protein, UniProt Q9H3Z4 1-198, looked up, variant L115R)
DnaJ homolog subfamily C …: MADQRQRSLSTSGESLYHVLGLDKNATSDDIKKSYRKLALKYHPDKNPDNPEAADKFKEINNAHAILTDATKRNIYDKYGSLGLYVAEQFGEENVNTYFVLSSWWAKALFVFCGRLTCCYCCCCLCCCFNCCCGKCKPKAPEGEETEFYVSPEDLEAQLQSDEREATDTPIVIQPASATETTQLTADSHPSYHTDGFN
For the molecule B5, the “export of GFP-72Q huntingtin^exon1” value in test [4] was “promote export”.
